# In US8796460B2, “Compounds for inhibiting KSP kinesin activity” (Mercky Sharp & Dohme Corp., priority 2007, dated 2014):
# Test system: HCT116 colon cancer cells
# Test: KSP Cellular Assay (percent of cells staining positive for Phos-Histone H3 / Phos-MPM2)
# Assay type: cell-based
# Settings: Homo sapiens, HCT-116, 16 h, Table 101; HCT116 cells, 16 hours with drug; read-out: ED50 (nM) Range
# Description: HCT116 colon cancer cells were grown in DMEM:F12 media with 10% heat inactivated FBS at 37 degrees with 5% CO2. Cells were plated at 7,500 cells per well in PDL coated 384-well tissue culture plates. 6 hours later media was removed and new media containing drug was added. Cells were incubated with drug for 16 hours. All further steps were performed at room temperature in the dark. Cells were fixed with 25 ul/well Prefer fixation solution plus 250 nM Hoechst dye and incubated for 30 minutes. The fixation solution was removed and cells were washed with PBS. Cells were then permeabilized with 25 ul/well 0.2% Triton-X in PBS and incubated for 10 minutes. Cells were washed with PBS and then incubated with 25 ul/well PBS containing 3% FBS for 30 minutes. Cells were then stained overnight at 4 degrees with 25 ul/well antibody solution in PBS plus 3% FBS. Antibodies used were Phos-Histone H3 (ser10)-Alexa Flur 488 Conjugate and Phos-MPM2 Texas Red Conjugate. Cells were washed with PBS and then immunofluorescence images captured with HT Pathway microscope. The percent of cells staining positive was calculated and EC50 values for the compounds of the invention that were tested were determined using Excel XLfit.
# EC50 Determinations: Dose-response curves were plotted from inhibition data generated each in duplicate, from 8 point serial dilutions of inhibitory compounds. Concentration of compound was plotted against enzyme activity (OD reading). To generate EC50 values, the dose-response curves were then fitted to a standard sigmoidal curve and EC50 values were derived by nonlinear regression analysis.
row,EC50 [nM],SMILES
1,> 1000,CC(=O)N1N=C(c2cc(F)ccc2F)SC12CCCc1ccccc12 (centres unmarked) [compound 101]
2,≤ 500,CC(=O)N1N=C(c2cc(F)ccc2F)SC12CCOc1ccccc12 (centres unmarked) [compound 102]
3,> 1000,CC(=O)N1N=C(c2cc(F)ccc2F)SC12CCCc1sccc12 (centres unmarked) [compound 103]
4,> 1000,CC(=O)N1N=C(c2cc(F)ccc2F)SC12CCSc1ccccc12 (centres unmarked) [compound 104]
5,≤ 500,CC(=O)N1N=C(c2cc(F)ccc2F)SC12CCc1ccccc12 (centres unmarked) [compound 105]
6,≤ 500,CC(=O)N1N=C(c2cc(F)ccc2F)SC12COc1ccccc12 (centres unmarked) [compound 106]
7,> 500,CC(=O)N1N=C(c2cc(F)ccc2F)SC12CCCc1ccsc12 (centres unmarked) [compound 107]
8,> 1000,CC(=O)N1N=C(c2cc(F)ccc2F)SC12CC[S+]([O-])c1ccccc12 (centres unmarked) [compound 108]
9,> 1000,CC(=O)N1N=C(c2cc(F)ccc2F)SC12CCS(=O)(=O)c1ccccc12 (centres unmarked) [compound 109]
10,≤ 500,CC(=O)N1N=C(c2cc(F)ccc2F)SC12CCNc1ccccc12 (centres unmarked) [compound 110]
11,> 1000,CC(=O)N1N=C(c2cc(F)ccc2F)SC12CCN(C)c1ccccc12 (centres unmarked) [compound 111]
12,> 1000,CC(=O)N1CCC2(SC(c3cc(F)ccc3F)=NN2C(C)=O)c2ccccc21 (centres unmarked) [compound 112]
13,> 1000,CCOC(=O)N1CCC2(SC(c3cc(F)ccc3F)=NN2C(C)=O)c2ccccc21 (centres unmarked) [compound 113]
14,> 1000,CC(=O)N1N=C(c2cc(F)ccc2F)SC12CCN(C(C)=S)c1ccccc12 (centres unmarked) [compound 114]
15,> 1000,CC(=O)N1N=C(c2cc(F)ccc2F)SC12CC(C)Oc1ccc(F)cc12 (centres unmarked) [compound 115]
16,≤ 500,CC(=O)N1N=C(c2cc(F)ccc2F)SC12CCOc1ccc(F)cc12 (centres unmarked) [compound 116]
17,> 1000,CC(=O)N1N=C(c2cc(F)ccc2F)SC12CC(c1ccccc1)Oc1ccccc12 (centres unmarked) [compound 117]
18,≤ 500,CC(=O)N1N=C(c2cc(F)ccc2F)S[C@@]12CCc1ccccc12 [compound 118]
19,500 to 1000,CC(=O)N1N=C(c2cc(F)ccc2F)S[C@]12CCc1ccccc12 [compound 119]
20,≤ 500,CC(=O)N1N=C(C2=C(F)CCC(F)=C2)SC12Cc1ccccc12 (centres unmarked) [compound 120]
21,> 1000,CC(=O)N1N=C(c2cc(F)ccc2F)SC12CCCOc1ccccc12 (centres unmarked) [compound 121]
22,> 1000,CC(=O)N1N=C(c2cc(F)ccc2F)SC12CCCCc1ccccc12 (centres unmarked) [compound 122]
23,> 1000,CC(=O)N1N=C(c2cc(F)ccc2F)SC12CCCc1ncccc12 (centres unmarked) [compound 123]
24,> 1000,CC(=O)N1N=C(c2cc(F)ccc2F)SC12CCCc1cccnc12 (centres unmarked) [compound 124]
25,> 1000,CC(=O)N1N=C(c2cc(F)ccc2F)SC12CC1(CCNCC1)Oc1ccccc12 (centres unmarked) [compound 125]
26,> 1000,CC(=O)N1CCC2(CC1)CC1(SC(c3cc(F)ccc3F)=NN1C(C)=O)c1ccccc1O2 (centres unmarked) [compound 126]
27,> 1000,CC(=O)N1N=C(c2cc(F)ccc2F)SC12C(=O)Nc1ccccc12 (centres unmarked) [compound 127]
28,> 1000,CC(=O)N1C(=O)C2(SC(c3cc(F)ccc3F)=NN2C(C)=O)c2ccccc21 (centres unmarked) [compound 128]

# Same assay, conditions: Homo sapiens, HCT-116, 16 h, Table 401; HCT116 cells, 16 hours with drug; read-out: ED50 (nM) Range
row,EC50 [nM],SMILES
1,> 1000,O=C(C1CCNCC1)N1N=C(c2cc(F)ccc2F)SC12CCCc1ccccc12 (centres unmarked) [compound 401]
2,> 1000,CC(C)[C@H](O)C(=O)N1N=C(c2cc(F)ccc2F)SC12CCCc1ccccc12 (some centres unmarked) [compound 402]
3,> 1000,O=C([C@@H]1CCCCN1)N1N=C(c2cc(F)ccc2F)SC12CCSc1ccccc12 (some centres unmarked) [compound 403]
4,> 1000,O=C(C1CCCCN1)N1N=C(c2cc(F)ccc2F)SC12CCOc1ccccc12 (centres unmarked) [compound 404]
5,> 1000,O=C(C1CCCNC1)N1N=C(c2cc(F)ccc2F)SC12CCSc1ccccc12 (centres unmarked) [compound 405]
6,> 1000,O=C(C1CCNCC1)N1N=C(c2cc(F)ccc2F)SC12CCSc1ccccc12 (centres unmarked) [compound 406]
7,> 1000,O=C(C1CCCNC1)N1N=C(c2cc(F)ccc2F)SC12CCOc1ccccc12 (centres unmarked) [compound 407]
8,> 1000,O=C(C1CCNCC1)N1N=C(c2cc(F)ccc2F)SC12CCOc1ccccc12 (centres unmarked) [compound 408]
9,> 1000,CC(C)[C@H](O)C(=O)N1N=C(c2cc(F)ccc2F)SC12CCCc1sccc12 (some centres unmarked) [compound 409]
10,> 1000,O=C(C1CCCN1)N1N=C(c2cc(F)ccc2F)SC12CCCc1ccccc12 (centres unmarked) [compound 410]
11,> 1000,O=C([C@@H]1CCCN1)N1N=C(c2cc(F)ccc2F)SC12CCCc1sccc12 (some centres unmarked) [compound 411]
12,> 1000,O=C(C1CCNC1)N1N=C(c2cc(F)ccc2F)SC12CCCc1ccccc12 (centres unmarked) [compound 412]
13,> 1000,O=C([C@@H]1CCCN1)N1N=C(c2cc(F)ccc2F)SC12CCSc1ccccc12 (some centres unmarked) [compound 413]
14,> 1000,O=C([C@@H]1CCCCN1)N1N=C(c2cc(F)ccc2F)SC12CCCc1ccccc12 (some centres unmarked) [compound 414]
15,> 1000,N[C@H](C(=O)N1N=C(c2cc(F)ccc2F)SC12CCSc1ccccc12)C1CC1 (some centres unmarked) [compound 415]
16,> 1000,O=C(C1CCCNC1)N1N=C(c2cc(F)ccc2F)SC12CCCc1ccccc12 (centres unmarked) [compound 416]
17,> 1000,N[C@H](C(=O)N1N=C(c2cc(F)ccc2F)SC12CCCc1sccc12)C1CC1 (some centres unmarked) [compound 417]
18,> 1000,N[C@H](C(=O)N1N=C(c2cc(F)ccc2F)SC12CCCc1ccccc12)C1CC1 (some centres unmarked) [compound 418]
19,> 1000,N[C@H](C(=O)N1N=C(c2cc(F)ccc2F)SC12CCOc1ccccc12)C1CC1 (some centres unmarked) [compound 419]
20,> 1000,N[C@H](C(=O)N1N=C(c2cc(F)ccc2F)SC12CCc1ccccc12)C1CC1 (some centres unmarked) [compound 420]
21,> 1000,CN1CCC(C(=O)N2N=C(c3cc(F)ccc3F)SC23CCc2ccccc23)CC1 (centres unmarked) [compound 421]
22,> 1000,O=C(C1CCNCC1)N1N=C(c2cc(F)ccc2F)SC12CCc1ccccc12 (centres unmarked) [compound 422]
23,> 1000,O=C([C@@H]1CCCN1)N1N=C(c2cc(F)ccc2F)SC12CCc1ccccc12 (some centres unmarked) [compound 423]
24,> 1000,CC(C)[C@H](O)C(=O)N1N=C(c2cc(F)ccc2F)SC12CCCc1ccsc12 (some centres unmarked) [compound 424]
25,> 1000,O=C([C@@H]1CCCCN1)N1N=C(c2cc(F)ccc2F)SC12CCCc1ccsc12 (some centres unmarked) [compound 425]
26,> 1000,O=C(C1CCCNC1)N1N=C(c2cc(F)ccc2F)SC12CCCc1ccsc12 (centres unmarked) [compound 426]
27,> 1000,O=C([C@@H]1CCCN1)N1N=C(c2cc(F)ccc2F)SC12CCCc1ccsc12 (some centres unmarked) [compound 427]

# Same assay, conditions: Homo sapiens, HCT-116, 16 h, Table 1201 (Example 1201); HCT116 cells, 16 hours with drug; read-out: EC50 (nM) Range
row,EC50 [nM],SMILES
1,≤ 500,"CC(=O)N1N=C(c2cc(F)ccc2F)S[C@@]12c1ccccc1OC[C@H]2CCN1CCOCC1 (single isomer, unassigned) [compound 1201]"

# Same assay, conditions: Homo sapiens, HCT-116, 16 h, table of Example 1001; HCT116 cells, 16 hours with drug; read-out: EC50 (nM) Range
row,EC50 [nM],SMILES
1,≤ 500,"CC(=O)N1N=C(c2cc(F)ccc2F)S[C@]12c1ccccc1OC[C@H]2CCCO (single isomer, unassigned) [compound 1002]"
2,> 1000,"CC(=O)N1N=C(c2cc(F)ccc2F)S[C@]12c1ccccc1OC[C@@H]2CCCO (single isomer, unassigned) [compound 1003]"

# Same assay, conditions: Homo sapiens, HCT-116, 16 h, table of Example 1801 (headed Table 1201); HCT116 cells, 16 hours with drug; read-out: EC50 (nM) Range
row,EC50 [nM],SMILES
1,≤ 500,"CC(=O)N1N=C(c2ccc(F)cc2F)S[C@@]12c1ccccc1OC[C@H]2CCN (single isomer, unassigned) [compound 1801]"

# Same assay, conditions: Homo sapiens, HCT-116, 16 h, table of Example 1901; HCT116 cells, 16 hours with drug; read-out: EC50 (nM) Range
row,EC50 [nM],SMILES
1,> 1000,"CO[C@@H](C)C(=O)N1N=C(c2cc(F)ccc2F)S[C@]12c1cc(F)ccc1OC[C@@H]2CCN (single isomer, unassigned) [compound 1901]"

# Same assay, conditions: Homo sapiens, HCT-116, 16 h, table of Example 2101; HCT116 cells, 16 hours with drug; read-out: EC50 (nM) Range
row,EC50 [nM],SMILES
1,≤ 500,"CCOC(=O)N1N=C(c2cc(F)ccc2F)S[C@@]12c1cc(F)ccc1OC[C@H]2CCN (single isomer, unassigned) [compound 2101]"

# Same assay, conditions: Homo sapiens, HCT-116, 16 h, table of Example 2201; HCT116 cells, 16 hours with drug; read-out: EC50 (nM) Range
row,EC50 [nM],SMILES
1,> 1000,"CN(C)C(=O)N1N=C(c2cc(F)ccc2F)S[C@@]12c1cc(F)ccc1OC[C@H]2CCN (single isomer, unassigned) [compound 2201]"

# Same assay, conditions: Homo sapiens, HCT-116, 16 h, table of Example 2401; HCT116 cells, 16 hours with drug; read-out: EC50 (nM) Range
row,EC50 [nM],SMILES
1,≤ 500,"CC(=O)N1N=C(c2cc(F)ccc2F)S[C@@]12CCNc1ccccc12 (single isomer, unassigned) [compound 2401]"

# Same assay, conditions: Homo sapiens, HCT-116, 16 h, table of Example 2901; HCT116 cells, 16 hours with drug; read-out: EC50 (nM) Range
row,EC50 [nM],SMILES
1,≤ 500,"CC(=O)N1N=C(c2cc(F)ccc2F)S[C@@]12c1cc(F)ccc1NC[C@@H]2CCN (single isomer, unassigned) [compound 2901]"

# Same assay, conditions: Homo sapiens, HCT-116; read-out: EC50 (nM) Range
row,EC50 [nM],SMILES
1,≤ 500,"C=CC[C@@H]1CNc2ccccc2[C@]12SC(c1cc(F)ccc1F)=NN2C(C)=O (single isomer, unassigned) [compound 3001]"
